Measured values: ChEMBL document CHEMBL1129198, “Synthesis and antibacterial activity of lipophilic carbapenems with anti-MRSA activity” (Bioorg Med Chem Lett, 1996)
Converted amounts (≈) assume the structure as drawn.

Legend:
[1] = tested on: Staphylococcus haemolyticus; test: Antibacterial activity against methicillin-resistant Staphylococcus haemolyticus 601117; format: functional
Staphylococcus aureus [2] = test: Antibacterial activity against methicillin-resistant Staphylococcus aureus 607004.; format: functional
Staphylococcus aureus [3] = test: Antibacterial activity against methicillin-resistant Staphylococcus aureus 601053.; format: functional
Staphylococcus aureus [4] = test: Antibacterial activity against methicillin-sensitive Staphylococcus aureus 601055.(grown in the presence of blood); format: functional
Enterococcus faecium = test: Antibacterial activity against vancomycin-resistant Enterococcus faecium 628016.; format: functional
Staphylococcus aureus [5] = test: Antibacterial activity against methicillin-sensitive Staphylococcus aureus 601055.; format: functional
Streptococcus pneumoniae = test: Antibacterial activity against penicillin-resistant Streptococcus pneumoniae 671319; format: functional
Enterococcus faecalis = test: Antibacterial activity against vancomycin-sensitive Enterococcus faecalis 683026.; format: functional
Staphylococcus aureus [6] = test: Compound was tested for its binding affinity against PBP2'' receptor in Staphylococcus aureus. Values taken from literature.; format: functional
[7] = (§1) Compound was tested for its binding affinity against PBP2' receptor in Staphylococcus aureus.
[8] = In vitro binding affinity towards PBP2'' of Staphylococcus aureus using [14C]benzylpenicillin as radioligand
Staphylococcus aureus [9] = test: as §1; format: functional, organism-based
Staphylococcus aureus [10] = test: Compound was tested for its antibacterial activity against methicillin-resistant Staphylococcus aureus.; format: functional

SMILES	MIC [1] [µg/mL]	MIC (Staphylococcus aureus [2]) [µg/mL]	MIC (Staphylococcus aureus [3]) [µg/mL]	MIC (Staphylococcus aureus [4]) [µg/mL]	MIC (Enterococcus faecium) [µg/mL]	MIC (Staphylococcus aureus [5]) [µg/mL]	MIC (Streptococcus pneumoniae) [µg/mL]	MIC (Enterococcus faecalis) [µg/mL]	IC50 (Staphylococcus aureus [6]) [µg/mL]	IC50 [7] [µg/mL]	IC50 [8] [µg/mL]	IC50 (Staphylococcus aureus [9]) [µg/mL]	MIC (Staphylococcus aureus [10]) [µg/mL]
C[C@@H](O)[C@H]1C(=O)N2C(C(=O)O)=C(CSc3ccc4c(c3)CCC4=O)[C@H](C)[C@H]12	2 (≈ 5.16 µM)	2 (≈ 5.16 µM)	0.5 (≈ 1.29 µM)	0.008	0.5 (≈ 1.29 µM)	0.016 (≈ 0.0413 µM)	0.03 (≈ 0.0774 µM)	1 (≈ 2.58 µM)					
C[C@@H](O)[C@H]1C(=O)N2C(C(=O)O)=C(COc3cccc4c3CCCC4=O)[C@H](C)[C@H]12	4 (≈ 10.4 µM)	2 (≈ 5.19 µM)	0.25 (≈ 0.649 µM)	0.008	2 (≈ 5.19 µM)	0.016 (≈ 0.0415 µM)	0.06 (≈ 0.156 µM)	2 (≈ 5.19 µM)					
C[C@@H](O)[C@H]1C(=O)N2C(C(=O)O)=C(COc3cccc4c3C/C(=C\c3cccs3)C4=O)[C@H](C)[C@H]12	0.5 (≈ 1.07 µM)	2 (≈ 4.3 µM)	0.25 (≈ 0.537 µM)	0.008	4 (≈ 8.59 µM)	0.008 (≈ 0.0172 µM)	0.03 (≈ 0.0644 µM)	2 (≈ 4.3 µM)					
C[C@@H](O)[C@H]1C(=O)N2C(C(=O)O)=C(COc3ccc4c(c3)CCC4)[C@H](C)[C@H]12	16 (≈ 44.8 µM)	16 (≈ 44.8 µM)	1 (≈ 2.8 µM)	8	32 (≈ 89.5 µM)	0.03 (≈ 0.0839 µM)	1 (≈ 2.8 µM)	64 (≈ 179 µM)					
C[C@@H](O)[C@H]1C(=O)N2C(C(=O)O)=C(Sc3ccc4ccccc4c3)[C@H](C)[C@H]12	8 (≈ 21.7 µM)	8 (≈ 21.7 µM)	1 (≈ 2.71 µM)	0.03	8 (≈ 21.7 µM)	0.03 (≈ 0.0812 µM)	2 (≈ 5.41 µM)	16 (≈ 43.3 µM)					
C[C@@H](O)[C@H]1C(=O)N2C(C(=O)O)=C(Sc3ccc(C#N)c4ccccc34)[C@H](C)[C@H]12	1 (≈ 2.54 µM)	2 (≈ 5.07 µM)	0.5 (≈ 1.27 µM)	0.016	2 (≈ 5.07 µM)	0.016 (≈ 0.0406 µM)	0.25 (≈ 0.634 µM)	8 (≈ 20.3 µM)					
C[C@@H](O)[C@H]1C(=O)N2C(C(=O)O)=C(COc3cccc4c3CCC4=O)[C@H](C)[C@H]12	8 (≈ 21.5 µM)	4 (≈ 10.8 µM)	0.12 (≈ 0.323 µM)	0.008	2 (≈ 5.39 µM)	0.016 (≈ 0.0431 µM)	0.06 (≈ 0.162 µM)	1 (≈ 2.69 µM)					
C[C@@H](O)[C@H]1C(=O)N2C(C(=O)[O-])=C(COc3ccc4nc(C[n+]5ccccc5)sc4c3)[C@H](C)[C@H]12	2 (≈ 4.3 µM)	4 (≈ 8.59 µM)	0.25 (≈ 0.537 µM)	0.016	2 (≈ 4.3 µM)	0.03 (≈ 0.0644 µM)	0.06 (≈ 0.129 µM)	0.5 (≈ 1.07 µM)					
C[C@@H](O)[C@H]1C(=O)N2C(C(=O)[O-])=C(COc3ccc4cc(Cn5cc[n+](C)c5)ccc4c3)[C@H](C)[C@H]12	2 (≈ 4.33 µM)	1 (≈ 2.17 µM)	0.5 (≈ 1.08 µM)	0.016	2 (≈ 4.33 µM)	0.016 (≈ 0.0347 µM)	0.06 (≈ 0.13 µM)	2 (≈ 4.33 µM)					
C[C@@H](O)[C@H]1C(=O)N2C(C(=O)O)=C(CSc3ccc4c(c3)OCCC4=O)[C@H](C)[C@H]12	1 (≈ 2.48 µM)	1 (≈ 2.48 µM)	1 (≈ 2.48 µM)	0.008	0.5 (≈ 1.24 µM)	0.03 (≈ 0.0744 µM)	0.03 (≈ 0.0744 µM)	1 (≈ 2.48 µM)					
C[C@@H](O)[C@H]1C(=O)N2C(C(=O)O)=C(COc3ccc4cc(C(N)=O)ccc4c3)[C@H](C)[C@H]12	2 (≈ 4.87 µM)	0.5 (≈ 1.22 µM)	0.25 (≈ 0.609 µM)	0.016	1 (≈ 2.44 µM)	0.008 (≈ 0.0195 µM)	0.03 (≈ 0.0731 µM)	2 (≈ 4.87 µM)	8 (≈ 19.5 µM)	> 16	> 16		
C[C@@H](O)[C@H]1C(=O)N2C(C(=O)O)=C(SCCc3ccc4ccccc4c3)[C@H](C)[C@H]12	128 (≈ 322 µM)	32 (≈ 80.5 µM)	8 (≈ 20.1 µM)	0.13	16 (≈ 40.3 µM)	0.13 (≈ 0.327 µM)	0.5 (≈ 1.26 µM)	8 (≈ 20.1 µM)					
C[C@@H](O)[C@H]1C(=O)N2C(C(=O)O)=C(COc3ccc4occ(CN(C)C)c(=O)c4c3)[C@H](C)[C@H]12	2 (≈ 4.52 µM)	4 (≈ 9.04 µM)	0.5 (≈ 1.13 µM)	0.016	2 (≈ 4.52 µM)	0.06 (≈ 0.136 µM)	0.12 (≈ 0.271 µM)	0.5 (≈ 1.13 µM)					
C[C@@H](O)[C@H]1C(=O)N2C(C(=O)O)=C(CNC(=O)c3ccc4ccccc4c3)[C@H](C)[C@H]12	128 (≈ 325 µM)	128 (≈ 325 µM)	8 (≈ 20.3 µM)	0.25	32 (≈ 81.1 µM)	0.5 (≈ 1.27 µM)	4 (≈ 10.1 µM)	16 (≈ 40.6 µM)					
C[C@@H](O)[C@H]1C(=O)N2C(C(=O)O)=C(COc3ccc4ccccc4c3)[C@H](C)[C@H]12	2 (≈ 5.44 µM)	4 (≈ 10.9 µM)	0.25 (≈ 0.68 µM)	32	64 (≈ 174 µM)	0.016 (≈ 0.0435 µM)	4 (≈ 10.9 µM)	128 (≈ 348 µM)					
Cc1nc2ccc(SCC3=C(C(=O)O)N4C(=O)[C@H]([C@@H](C)O)[C@H]4[C@H]3C)cc2s1	4 (≈ 9.89 µM)	4 (≈ 9.89 µM)	2 (≈ 4.94 µM)	0.016	8 (≈ 19.8 µM)	0.03 (≈ 0.0742 µM)	0.06 (≈ 0.148 µM)	2 (≈ 4.94 µM)					
C[C@@H](O)[C@H]1C(=O)N2C(C(=O)O)=C(SCc3ccc4ccccc4c3)[C@H](C)[C@H]12	2 (≈ 5.22 µM)	1 (≈ 2.61 µM)	1 (≈ 2.61 µM)	0.03	8 (≈ 20.9 µM)	0.06 (≈ 0.156 µM)	0.06 (≈ 0.156 µM)	2 (≈ 5.22 µM)	2 (≈ 5.22 µM)		9.5 (≈ 24.8 µM)	9.5 (≈ 24.8 µM)	
C[C@@H](O)[C@H]1C(=O)N2C(C(=O)O)=C(COc3ccc4occc(=O)c4c3)[C@H](C)[C@H]12	2 (≈ 5.19 µM)	2 (≈ 5.19 µM)	0.25 (≈ 0.649 µM)	0.016	2 (≈ 5.19 µM)	0.016 (≈ 0.0415 µM)	0.03 (≈ 0.0778 µM)	2 (≈ 5.19 µM)					
C[C@@H](O)[C@H]1C(=O)N2C(C(=O)O)=C(CSc3ccc4ccccc4c3)[C@H](C)[C@H]12	2 (≈ 5.22 µM)	4 (≈ 10.4 µM)	0.5 (≈ 1.3 µM)	32	128 (≈ 334 µM)	0.016 (≈ 0.0417 µM)	1 (≈ 2.61 µM)	128 (≈ 334 µM)					
C[C@@H](O)[C@H]1C(=O)N2C(C(=O)O)=C(SCCNC(=O)c3ccc4ccccc4c3)[C@H](C)[C@H]12	256 (≈ 581 µM)	64 (≈ 145 µM)	4 (≈ 9.08 µM)	0.13	8 (≈ 18.2 µM)	0.13 (≈ 0.295 µM)	0.25 (≈ 0.568 µM)	4 (≈ 9.08 µM)					
C[C@@H](O)[C@H]1C(=O)N2C(C(=O)O)=C(CSc3ccc4ccccc4n3)[C@H](C)[C@H]12	0.5 (≈ 1.3 µM)	4 (≈ 10.4 µM)	0.13 (≈ 0.338 µM)	0.03	1 (≈ 2.6 µM)	0.016 (≈ 0.0416 µM)	0.06 (≈ 0.156 µM)	4 (≈ 10.4 µM)					
C[C@@H](O)[C@H]1C(=O)N2C(C(=O)O)=C(Sc3cccc4ccccc34)[C@H](C)[C@H]12	8 (≈ 21.7 µM)	8 (≈ 21.7 µM)	1 (≈ 2.71 µM)	0.06	32 (≈ 86.6 µM)	0.06 (≈ 0.162 µM)	1 (≈ 2.71 µM)	16 (≈ 43.3 µM)					
C[C@@H](O)[C@H]1C(=O)N2C(C(=O)O)=C(CSc3ccc4c(c3)CC(=O)N4C)[C@H](C)[C@H]12	16 (≈ 39.8 µM)	8 (≈ 19.9 µM)	4 (≈ 9.94 µM)	0.06	8 (≈ 19.9 µM)	0.12 (≈ 0.298 µM)	0.25 (≈ 0.621 µM)	4 (≈ 9.94 µM)					
C[C@@H](O)[C@H]1C(=O)N2C(C(=O)O)=C(SCCNC=N)C[C@H]12 [IMIPENEM ANHYDROUS]	64 (≈ 214 µM)	64 (≈ 214 µM)	8 (≈ 26.7 µM)	0.015	4 (≈ 13.4 µM)	0.03 (≈ 0.1 µM)	0.12 (≈ 0.401 µM)	2 (≈ 6.68 µM)	220 (≈ 735 µM)		430 (≈ 1440 µM)	430 (≈ 1440 µM)	128 (≈ 428 µM)
